Laboratory results taken from patent US20100279990A1, “ANTIPROLIFERATIVE COMPOUNDS, COMPOSITIONS AND METHODS OF USE” (RAMOT AT TEL-AVIV UNIVERSITY LTD., priority 2006, published 2010).
Like-named read-outs stand apart in the source and are kept apart here.

Tests used:
MEXF 520L = assay: Monolayer Assay, PI: MEXF 520L (Melanoma); format: cell-based, human
Description: (§1) This example illustrates cell proliferation data in the form of IC50, IC70 and IC90 values obtained by exposure of human cancer cell-lines to compound (Ia). […].

PAXF 1657L = assay: Monolayer Assay, PI: PAXF 1657L; format: cell-based, human
Description: as §1

human tumor cell lines = assay: In vitro antitumor activity in panel of 37 human tumor cell lines (Monolayer Assay, PI), summary; format: cell-based
[1] = system: Caspase 3 activity of LS1034 human colon MDR carcinoma cells; assay: Caspase-3 activity in LS1034 human colon MDR carcinoma cells; format: cell-based; settings: 10 or 20 μM, 4 hr after exposure
Procedure: Caspase 3 activity was measured by an enzymatic fluorimetric method using a fluorigenic substrate (Ac-DEVD-AMC), which produces blue fluorescence detected at 360 nm wavelength. […] When AMC is cleaved from the substrate by caspase-3, and caspase-3-like enzymes, it produces a yellow-green fluorescence, which can be monitored by a fluorimeter at 460 nm. The amount of yellow green fluorescence is proportional to the activity of caspase-3 in the cell extract sample.
Whole cell lysate was added to a buffer containing 100 μM peptide substrate, 100 mM HEPES, 10% glycerol, 1 mM EDTA and 10 mM dithiothreitol. Measurements were taken every 5 min for 80 min. These experiments were also monitored in the presence of a specific caspase-3 inhibitor, DEVD-AMC-CHO, which was added after 45 or 60 min to the reaction mixture, to ascertain the specificity of the enzyme.

[2] = system: human Jurkat lymphoma cells; assay: Viability of human Jurkat lymphoma cells, alamar blue staining; format: cell-based; settings: for IC50: Homo sapiens, 48 hr, alamar blue
Procedure: This example illustrates cell viability data derived from the incubation of a human. […] The results are depicted in FIGS. 1A, 1B, and 1C. […] See Nociari et al., J. Immunol. […] Each point represents the mean+/−SE of 4 determinations.

[3] = system: human colon carcinoma cells (HT29); assay: HT29 human colon carcinoma s.c. tumor in Nude CD1 male mice; format: in vivo
Description: This example illustrates the effect of several compounds, including an exemplary compound of the present invention, on tumor volume. tumor weight and body weight in mice. Nude CD1 male mice were purchased from Harlan (Israel). Animals were housed under controlled conditions (temperature, humidity) and were given food and water ad libitum. After one week of acclimatization animals were inoculated s.c. with human colon carcinoma cells (HT29) (2,000,000 cell/animals.). Therapy began 8 days after inoculation, at which time the animals were divided randomly into 4 groups (7-8 mice/group) and administered ip 3 times weekly for 4 weeks with the following compounds: […] Body weight and tumor volume were measured weekly. Tumor volume is defined as (shortest diameter)^2×(longest diameter)×0.5. At the end of the treatment, animals were sacrificed and tumors and organs collected and weighed.

MAXF MCF7 = assay: Monolayer Assay, PI: MAXF MCF7 (Breast); format: cell-based, human
Description: as §1

[4] = system: human Jurkat lymphoma cells; assay: Viability of human Jurkat lymphoma cells, dexamethasone alone and in combination; format: cell-based
PRXF 22RV1 = assay: Monolayer Assay, PI: PRXF 22RV1 (Prostate); format: cell-based, human
Description: as §1

RXF 486L = assay: Monolayer Assay, PI: RXF 486L (Renal); format: cell-based, human
Description: as §1

LXF 529L = assay: Monolayer Assay, PI: LXF 529L (Lung); format: cell-based, human
Description: as §1

[5] = system: c-jun and p-c-jun expression in HaCat cells; assay: Western blot of c-jun and p-c-jun expression in HaCat cells; format: cell-based, human; settings: 15 μM, 1 hr
Description: For each sample 2×10^7 cells were used. The cells were lysed, and equal amounts of protein was fractionated on polyacrylamide gel and then transferred to PVDF membrane. The amount of the protein was detected by immuno-blotting with monoclonal anti-c-Jun or p-c-Jun antibodies (Cayman, Ann Arbor, Mich., USA). A second antibody conjugated to horseradish peroxidase was used and visualized with chemiluminescent Kit (Pierce, Rockford, Ill., USA) on film. […] Activation of the […] pathway produces p-c-Jun as a major end, while initiating apoptosis in certain cell-lines.

[6] = mean over human cancer cell-lines

SMILES: CN[C@H]1CC[C@@H](c2ccc(Cl)c(Cl)c2)c2ccc(C#CCCCO)cc21 [compound (Ia), (1S-cis)-4-(3,4-dichlorophenyl)-7-(5-hydroxy-1-pentyn-1-yl)-1,2,3,4-tetrahydro-N-methyl-1-naphthalenamine hydroiodide]
- Test/Control (%) (MEXF 520L; 2.3 μg/ml): 83%
- Test/Control activity class (MEXF 520L; 2.3 μg/ml): − (− (T/C = 50))
- Test/Control (%) (MEXF 520L; 7.5 μg/ml): 8%
- Test/Control activity class (MEXF 520L; 7.5 μg/ml): ++ (++ (10 <= T/C < 30))
- Test/Control (%) (MEXF 520L; 23. μg/ml): 2%
- Test/Control activity class (MEXF 520L; 23. μg/ml): +++ (+++ (T/C < 10))
- Test/Control (%) (MEXF 520L; 75. μg/ml): 4%
- Test/Control activity class (MEXF 520L; 75. μg/ml): +++ (+++ (T/C < 10))
- Test/Control (%) (MEXF 520L; .75 μg/ml): 102%
- Test/Control activity class (MEXF 520L; .75 μg/ml): − (− (T/C = 50))
- Test/Control (%) (PAXF 1657L; 2.3 μg/ml): 92%
- Test/Control activity class (PAXF 1657L; 2.3 μg/ml): − (− (T/C = 50))
- Test/Control (%) (PAXF 1657L; 7.5 μg/ml): 40%
- Test/Control activity class (PAXF 1657L; 7.5 μg/ml): + (+ (30 <= T/C < 50))
- Test/Control (%) (PAXF 1657L; 23. μg/ml): 6%
- Test/Control activity class (PAXF 1657L; 23. μg/ml): +++ (+++ (T/C < 10))
- Test/Control (%) (PAXF 1657L; 75. μg/ml): 5%
- Test/Control activity class (PAXF 1657L; 75. μg/ml): +++ (+++ (T/C < 10))
- Test/Control (%) (PAXF 1657L; .75 μg/ml): 96%
- Test/Control activity class (PAXF 1657L; .75 μg/ml): − (− (T/C = 50))
- active*/total cell lines (human tumor cell lines; 2.3 μg/ml): 0/37
- active*/total cell lines, percent (human tumor cell lines; 2.3 μg/ml): 0%
- active*/total cell lines (human tumor cell lines; 7.5 μg/ml): 26/37
- active*/total cell lines, percent (human tumor cell lines; 7.5 μg/ml (text: concentration of 7.5), hydroiodide): 70%
- active*/total cell lines (human tumor cell lines; 23. μg/ml): 37/37
- active*/total cell lines, percent (human tumor cell lines; 23. μg/ml): 100%
- active*/total cell lines (human tumor cell lines; 75. μg/ml): 37/37
- active*/total cell lines, percent (human tumor cell lines; 75. μg/ml): 100%
- active*/total cell lines (human tumor cell lines; .75 μg/ml): 0/37
- active*/total cell lines, percent (human tumor cell lines; .75 μg/ml): 0%
- IC50 (human tumor cell lines; [6]): 4.9 µM
- mean IC70 (human tumor cell lines; [6]): 6.9 µM
- caspase-3 activity [1]: dose dependent increase in the activity of caspase-3
- IC50 ([2]; FIG. 1A, read-out: IC50, anti-proliferative activity): 12.5 µM
- IC50 ([2]; FIG. 1B, read-out: IC50, decrease in cell viability): 16.2 µM
- potency compared with sertraline ([2]; lower concentrations (1-10 μM), FIG. 1B): higher potency than sertraline
- tumor weight ([3]; HT29 tumor in nude mice, end of treatment, FIG. 17): very similar to the tumor weight of mice treated with 5 FU
- tumor volume ([3]; HT29 tumor in nude mice, ip 3 times weekly, after 3 and 4 weeks of therapy, FIG. 16): significantly decreased compared to the control groups
- decrease in body weight ([3]; compared to 5 FU or controls, FIG. 18): 10%
- histopathological assessment of spleen, liver and kidney ([3]; end of treatment): change in capsule fibrosis at random
- efficacy in inhibiting human colon cancer tumor growth ([3]; mice model, 30 mg/kg ip): high efficacy superior to sertraline
- Test/Control (%) (MAXF MCF7; 2.3 μg/ml): 67%
- Test/Control activity class (MAXF MCF7; 2.3 μg/ml): − (− (T/C = 50))
- Test/Control (%) (MAXF MCF7; 7.5 μg/ml): 5%
- Test/Control activity class (MAXF MCF7; 7.5 μg/ml): +++ (+++ (T/C < 10))
- Test/Control (%) (MAXF MCF7; 23. μg/ml): 2%
- Test/Control activity class (MAXF MCF7; 23. μg/ml): +++ (+++ (T/C < 10))
- Test/Control (%) (MAXF MCF7; 75. μg/ml): 3%
- Test/Control activity class (MAXF MCF7; 75. μg/ml): +++ (+++ (T/C < 10))
- Test/Control (%) (MAXF MCF7; .75 μg/ml): 93%
- Test/Control activity class (MAXF MCF7; .75 μg/ml): − (− (T/C = 50))
- inhibition of cell viability compared with sertraline and paroxetine ([4]; FIG. 13A): higher than that produced by either sertraline or paroxetine
- cytotoxicity at 20 µM ([4]; Homo sapiens, 20 μM alone, FIG. 13B, read-out: inhibition of cell viability): 69%
- Test/Control (%) (PRXF 22RV1; 2.3 μg/ml): 80%
- Test/Control activity class (PRXF 22RV1; 2.3 μg/ml): − (− (T/C = 50))
- Test/Control (%) (PRXF 22RV1; 7.5 μg/ml): 24%
- Test/Control activity class (PRXF 22RV1; 7.5 μg/ml): ++ (++ (10 <= T/C < 30))
- Test/Control (%) (PRXF 22RV1; 23. μg/ml): 2%
- Test/Control activity class (PRXF 22RV1; 23. μg/ml): +++ (+++ (T/C < 10))
- Test/Control (%) (PRXF 22RV1; 75. μg/ml): 2%
- Test/Control activity class (PRXF 22RV1; 75. μg/ml): +++ (+++ (T/C < 10))
- Test/Control (%) (PRXF 22RV1; .75 μg/ml): 85%
- Test/Control activity class (PRXF 22RV1; .75 μg/ml): − (− (T/C = 50))
- Test/Control (%) (RXF 486L; 2.3 μg/ml): 103%
- Test/Control activity class (RXF 486L; 2.3 μg/ml): − (− (T/C = 50))
- Test/Control (%) (RXF 486L; 7.5 μg/ml): 81%
- Test/Control activity class (RXF 486L; 7.5 μg/ml): − (− (T/C = 50))
- Test/Control (%) (RXF 486L; 23. μg/ml): 9%
- Test/Control activity class (RXF 486L; 23. μg/ml): +++ (+++ (T/C < 10))
- Test/Control (%) (RXF 486L; 75. μg/ml): 5%
- Test/Control activity class (RXF 486L; 75. μg/ml): +++ (+++ (T/C < 10))
- Test/Control (%) (RXF 486L; .75 μg/ml): 102%
- Test/Control activity class (RXF 486L; .75 μg/ml): − (− (T/C = 50))
- Test/Control (%) (LXF 529L; 2.3 μg/ml): 97%
- Test/Control activity class (LXF 529L; 2.3 μg/ml): − (− (T/C = 50))
- Test/Control (%) (LXF 529L; 7.5 μg/ml): 17%
- Test/Control activity class (LXF 529L; 7.5 μg/ml): ++ (++ (10 <= T/C < 30))
- Test/Control (%) (LXF 529L; 23. μg/ml): 3%
- Test/Control activity class (LXF 529L; 23. μg/ml): +++ (+++ (T/C < 10))
- Test/Control (%) (LXF 529L; 75. μg/ml): 5%
- Test/Control activity class (LXF 529L; 75. μg/ml): +++ (+++ (T/C < 10))
- Test/Control (%) (LXF 529L; .75 μg/ml): 93%
- Test/Control activity class (LXF 529L; .75 μg/ml): − (− (T/C = 50))
- effect on c-Jun / p-c-Jun (MAPK pathway) [5]: activation of the c-Jun-N-terminal kinase (JNK) pathway
